Experimental data taken from patent US6143492A, “Optical molecular sensors for cytochrome P450 activity” (Aurora Biosciences Corporation, priority 1999, dated 2000).

Columns and labels:
Format in all cases: biochemical
CYP 2C19 = CYP 2C19 (Homo sapiens, UniProt P33261); assay: Kinetics of fluorogenic substrates with CYP 2C19; conditions: for v (1.25 uM), turnover rate at 1.25 μM: CYP 2C19, substrate 1.25 uM; for v (10 uM), turnover rate at 10 μM: CYP 2C19, substrate 10 uM
CYP 2C9 = CYP 2C9 (Homo sapiens, UniProt P11712); assay: Kinetics of fluorogenic substrates with CYP 2C9; conditions: for v (1.25 uM), turnover rate at 1.25 μM: CYP 2C9, substrate 1.25 uM; for v (10 uM), turnover rate at 10 μM: CYP 2C9, substrate 10 uM
CYP 3A4 = target: T1, CYP 3A4 (Homo sapiens, UniProt P08684); assay: Kinetics of fluorogenic substrates with CYP 3A4; conditions: for type of kinetics / kcat / kcat/Km / conversion to the same fluorescent product vs the most closely structurally-related substrate: CYP 3A4; for v (1.25 uM), turnover rate at 1.25 μM: CYP 3A4, substrate 1.25 uM; for v (10 uM), turnover rate at 10 μM: CYP 3A4, substrate 10 uM
T1 construct: NADPH regenerating system
Description: Whichever of the four abstractable hydrogen atoms (designated H^1 and H^2 in this representation of BOMR) is removed in the initial reaction step, with reference to Reaction Scheme 1 of FIG. 1, the hydroxylation product will spontaneously decompose to the free resorufin dye. In addition, the benzyloxy group, attached to the carbon carrying the two hydrogens designated H^2, contributes an inductive electronic effect on that carbon, which can stabilize the radical formed during abstraction of one of the H^2 hydrogens by a cytochrome P450.
Optimization of assay conditions was, and is preferably, accomplished through statistically validated Design of Experiments methodologies, using the commercial software package "Design-Expert®" produced by Stat-Ease® Inc. The data shown in FIGS. 4 and 5 were obtained with initial optimization.
For further understanding these terms in the context of this invention, attention is directed to FIG. 4 and the analysis of FIG. 4.

CYP 2C9, sequence (P11712 whole entry): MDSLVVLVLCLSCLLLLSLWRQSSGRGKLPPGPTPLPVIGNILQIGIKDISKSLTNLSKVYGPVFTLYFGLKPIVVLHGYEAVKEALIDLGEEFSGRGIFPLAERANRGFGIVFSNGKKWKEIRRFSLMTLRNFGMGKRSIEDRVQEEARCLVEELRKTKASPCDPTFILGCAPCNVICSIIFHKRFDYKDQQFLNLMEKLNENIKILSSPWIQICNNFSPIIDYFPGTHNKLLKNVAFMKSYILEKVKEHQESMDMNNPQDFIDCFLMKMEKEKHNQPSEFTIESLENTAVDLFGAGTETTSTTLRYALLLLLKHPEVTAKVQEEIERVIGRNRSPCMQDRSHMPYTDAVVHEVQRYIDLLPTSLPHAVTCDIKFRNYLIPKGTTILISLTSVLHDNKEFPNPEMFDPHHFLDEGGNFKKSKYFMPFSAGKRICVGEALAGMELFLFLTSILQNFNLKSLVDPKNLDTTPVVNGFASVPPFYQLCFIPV
T1 sequence (P08684 whole entry): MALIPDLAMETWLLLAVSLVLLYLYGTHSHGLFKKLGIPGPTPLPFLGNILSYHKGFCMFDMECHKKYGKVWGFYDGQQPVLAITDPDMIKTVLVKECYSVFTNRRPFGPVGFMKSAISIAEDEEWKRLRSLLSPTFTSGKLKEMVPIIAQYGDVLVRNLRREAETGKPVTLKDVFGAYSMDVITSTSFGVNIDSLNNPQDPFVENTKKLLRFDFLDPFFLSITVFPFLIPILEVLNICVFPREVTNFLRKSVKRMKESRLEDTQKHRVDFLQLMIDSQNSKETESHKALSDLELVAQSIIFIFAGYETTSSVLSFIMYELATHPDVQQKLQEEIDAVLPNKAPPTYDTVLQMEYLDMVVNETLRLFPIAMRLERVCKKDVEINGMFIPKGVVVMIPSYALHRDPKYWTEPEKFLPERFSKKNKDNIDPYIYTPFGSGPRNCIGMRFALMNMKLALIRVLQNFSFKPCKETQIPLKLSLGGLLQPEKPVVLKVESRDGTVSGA
CYP 2C19, sequence (P33261 whole entry): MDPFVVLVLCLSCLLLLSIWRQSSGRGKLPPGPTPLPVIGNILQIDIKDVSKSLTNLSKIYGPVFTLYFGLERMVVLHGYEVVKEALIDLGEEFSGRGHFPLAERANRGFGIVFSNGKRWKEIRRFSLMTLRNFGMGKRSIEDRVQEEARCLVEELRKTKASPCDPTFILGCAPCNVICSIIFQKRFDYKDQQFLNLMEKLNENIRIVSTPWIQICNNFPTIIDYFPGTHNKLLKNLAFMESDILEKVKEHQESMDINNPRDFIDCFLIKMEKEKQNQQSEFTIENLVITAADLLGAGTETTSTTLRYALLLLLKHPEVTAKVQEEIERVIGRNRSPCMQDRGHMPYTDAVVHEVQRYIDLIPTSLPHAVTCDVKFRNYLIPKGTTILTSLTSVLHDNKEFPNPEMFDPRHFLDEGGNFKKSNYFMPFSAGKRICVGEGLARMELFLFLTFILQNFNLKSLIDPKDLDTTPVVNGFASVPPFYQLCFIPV

| SMILES | type of kinetics (CYP 2C19; CYP 2C19) | v (1.25 uM), turnover rate at 1.25 μM (CYP 2C19) [min⁻¹] | v (10 uM), turnover rate at 10 μM (CYP 2C19) [min⁻¹] | kcat (CYP 2C9; CYP 2C9) [s⁻¹] | kcat/Km (CYP 2C9; CYP 2C9) [M⁻¹ s⁻¹] | type of kinetics (CYP 2C9; CYP 2C9) | v (1.25 uM), turnover rate at 1.25 μM (CYP 2C9) [min⁻¹] | v (10 uM), turnover rate at 10 μM (CYP 2C9) [min⁻¹] | type of kinetics (CYP 3A4) | v (1.25 uM), turnover rate at 1.25 μM (CYP 3A4) [min⁻¹] | v (10 uM), turnover rate at 10 μM (CYP 3A4) [min⁻¹] | kcat (CYP 3A4) [s⁻¹] | kcat/Km (CYP 3A4) [M⁻¹ s⁻¹] | conversion to the same fluorescent product vs the most closely structurally-related substrate (CYP 3A4) | kcat (CYP 2C19; CYP 2C19) [s⁻¹] | kcat/Km (CYP 2C19; CYP 2C19) [M⁻¹ s⁻¹] | conversion to the same fluorescent product vs the most closely structurally-related substrate (CYP 2C19; CYP 2C19) | conversion to the same fluorescent product vs the most closely structurally-related substrate (CYP 2C9; CYP 2C9) |
| --- | --- | --- | --- | --- | --- | --- | --- | --- | --- | --- | --- | --- | --- | --- | --- | --- | --- | --- |
| COc1ccc2cc(C#N)c(=O)oc2c1 [3CMC, 3-cyano-7-methoxycoumarin, reference compound] | linear | 0.01 | 0.07 | 0.0067 | 85 | linear | 0.00 | 0.04 |  |  |  |  |  |  |  |  |  |  |
| O=c1cc(C(F)(F)F)c2ccc(OCc3ccccc3)cc2o1 [BFC, 7-Benzyloxy-4-trifluoromethylcoumarin, reference compound] |  |  |  |  |  |  |  |  | linear | 0.04 | 0.81 |  |  |  |  |  |  |  |
| CC1(C)C2=C(Cl)C(=O)C(Cl)=CC2=Nc2ccc(OCOCc3ccccc3)cc21 [BOMDDAO] |  |  |  |  |  |  |  |  |  | 0.4402 | 4.2041 | 0.1 | 14286 |  |  |  |  |  |
| O=c1cc(C(F)(F)F)c2ccc(OCOCc3ccccc3)cc2o1 [BOMFC] |  |  |  |  |  |  |  |  | Michaelis- | 0.11 | 1.41 | 0.0667 |  | more efficient conversion |  |  |  |  |
| O=C(OCc1ccccc1)c1c2oc3cc(OCc4ccccc4)ccc3nc-2ccc1=O [BRCBE] |  |  |  |  |  |  |  |  |  | 0.1992 | 0.6241 | 0.0138 | 5123 |  |  |  |  |  |
| CCN(CC)Cc1cc(=O)oc2cc(OC)ccc12 [DMMC] |  | 0.03 | 0.23 |  |  |  |  |  |  |  |  |  |  |  | 0.0067 | 784 |  |  |
| CCOCOc1ccc2nc3ccc(=O)cc-3oc2c1 [EOMR] |  |  |  |  |  |  |  |  | Michaelis- | 0.03 | 0.10 | 0.0017 |  | more efficient conversion |  |  |  |  |
| COCOc1ccc2cc(C#N)c(=O)oc2c1 [MOMCC] | Michaelis- | 0.14 | 0.38 | 0.0033 | 167 | Michaelis | 0.01 | 0.07 |  |  |  |  |  |  | 0.0083 | 2604 | more efficient conversion | more efficient conversion |
| CCCCCCCCOCOc1ccc2cc(C#N)c(=O)oc2c1 [OOMCC] |  | 0.179 | 1.043 |  |  |  |  |  |  | 0.2274 | 0.981 | 0.0198 | 4506 |  | 0.0283 | 4106 |  |  |
| CCCCCCCCOCOc1ccc2nc3ccc(=O)cc-3oc2c1 [OOMR, Octyloxymethylresorufin] |  | 0.1 | 0.13 | 0.0067 | 2564 |  | 0.137 | 0.31 |  | 0.323 | 0.601 | 0.011 | 7857 |  | 0.00283 | 4048 |  |  |
